Laboratory results from patent US20140350273A1, “PEDIATRIC USES OF CABAZITAXEL” (AVENTIS PHARMA S.A., priority 2012, published 2014).
Like-named read-outs stand apart in the source and are kept apart here.

Tested on: human Ewing's sarcoma DM101
Format: in vivo
Conditions: for MTTE / T-C: volume endpoint 2000 mm^3; for tumor volume changes from baseline, Median +/− MAD: nude mice bearing DM101 Ewing's sarcoma; for Tumor Volume Data (Day 11) Median / ΔT/ΔC %: day 11
Description: The resultant solution contains 10 mg/mL of cabazitaxel. Stock solution of cabazitaxel was then diluted in 0.9% sodium chloride.
This efficacy may be quantified, for example, as changes in tumor volume for each treated (T) and control (C) group, which are calculated for each animal and each day by subtracting the tumor volume on the day of first treatment (staging day) from the tumor volume on the specified observation day. This allows calculating the tumor growth inhibition: ΔT/ΔC=(median delta T/median delta C)×100. Individual tumor volume changes from baseline are thereafter analyzed by a non-parametric two-way ANOVA-TYPE (with factors: group and repeated days) followed by a post-hoc contrasts analysis, with Bonferroni-Holm adjustment for multiplicity, comparing all treated groups to the control group. […] A probability less than 5% (p<0.05) was considered as significant.
Based on the National Cancer Institute (NCl) standards, a ΔT/ΔC≦40% is the minimal level required to declare activity.
This efficacy may also be quantified by the number of tumor regressions observed after therapy. Individual mice reporting a tumor volume ≦50% of the Day 0 measurement for two consecutive measurements over a seven day period were considered partial responders (PR). Individual mice lacking palpable tumors (<4×4 mm^2 for two consecutive measurements over a seven day period) were classified as complete responders (CR); a CR that persisted until study completion was considered a tumor-free survivor (TFS).
Efficacy could also be determined at study completion, using tumor growth delay (T-C) in days, which is calculated using the median time to endpoint (MTTE) value for each treatment (T) group versus control (C). A Log Rank multiple comparison test with Bonferroni-Holm adjustment for multiplicity was applied on individual TTE to compare the treated groups to the control group.
The animals subjected to the experiment are subcutaneously grafted unilaterally with approximately 30 mg of a tumor fragment from low passage pediatric patient-derived tumor xenografts. The animals are implanted with a human patient-derived pediatric tumor xenografted in immuno-compromised mice (Harlan; nu/nu). Several days post tumor implantation, mice are randomized according to their tumor burden to the different groups of treatments and controls. The agents are dosed intravenously at 5.8, 9.3, 15 or 24.2 mg/kg every 4 days for a total of 3 doses (q4d×3) to mice bearing a tumor burden at start of therapy (day 0) ranged from 125 to 250 mm^3.
Beginning Day 0, animals were observed daily and weighed twice weekly using a digital scale; data including individual and mean gram weights (Mean We±SD), mean percent weight change versus Day 0 were recorded for each group. Animal deaths were recorded daily and designated as drug-related (D), technical (T), tumor related (B), or unknown (U) based on weight loss and gross observation; single agent or combination groups reporting a mean >20% for a period of 7 days and/or >10% mortality were considered above the maximum tolerated dose (MTD) for that treatment on the evaluated regimen.
The selected tumor model, DM101, was a low passage patient-derived tumor xenograft derived from an Ewing's sarcoma taken from the bone of a patient.
The following end points were used: • Toxicity was declared at dosages inducing ≧20% body weight loss or ≧10% drug death; • Antitumor efficacy was determined by calculating the ΔT/ΔC value in percent on day 11 post treatment initiation, according to the above mentioned formula; • Individual tumor volume changes from baseline were analyzed by a non-parametric two-way ANOVA-TYPE (with factors: group and repeated day from 4 to 14) followed by a post-hoc contrasts analysis, with Bonferroni-Holm adjustment for multiplicity, comparing all treated groups to the control group on day 11. […] The volume endpoint for T-C calculations was chosen to be 2000 mm^3.

## CC(=O)O[C@@]12CO[C@@H]1C[C@H](O)[C@@]1(C)C(=O)[C@H](O)C3=C(C)[C@@H](OC(=O)[C@H](O)[C@@H](NC(=O)OC(C)(C)C)c4ccccc4)C[C@@](O)([C@@H](OC(=O)c4ccccc4)[C@H]21)C3(C)C [Docetaxel, docetaxel]
5.8 mg/kg i.v./q4d × 3
  #CR: 0/0/0
  #PR: 0/0/0
  #TFS: 0/0/0
  Drug Deaths Total: 0
  Weight Nadir %: −1%
  Weight Nadir Day: 4
  Tumor Volume Data (Day 11) Median: 366 mm^3
  MTTE: 35 days
  T-C: 18.1 days
5.8 mg/kg, DAY 4
  tumor volume changes from baseline, Median +/− MAD: 51 +/− 38
5.8 mg/kg, DAY 7
  tumor volume changes from baseline, Median +/− MAD: 98 +/− 79
5.8 mg/kg, DAY 11
  tumor volume changes from baseline, Median +/− MAD: 202 +/− 183
5.8 mg/kg, DAY 14
  tumor volume changes from baseline, Median +/− MAD: 446 +/− 393
5.8 mg/kg, DAY 17
  tumor volume changes from baseline, Median +/− MAD: 640 +/− 621
5.8 mg/kg, DAY 20
  tumor volume changes from baseline, Median +/− MAD: 813 +/− 756
5.8 mg/kg, DAY 25
  tumor volume changes from baseline, Median +/− MAD: 766 +/− 478
5.8 mg/kg, DAY 28
  tumor volume changes from baseline, Median +/− MAD: 1140 +/− 564
5.8 mg/kg, DAY 32
  tumor volume changes from baseline, Median +/− MAD: 1694 +/− 281
9.3 mg/kg i.v./q4d × 3
  #CR: 4
  #PR: 4
  #TFS: 1
  Drug Deaths Total: 0
  Weight Nadir %: −4%
  Weight Nadir Day: 7
  Tumor Volume Data (Day 11) Median: 505 mm^3
  ΔT/ΔC %: 36.8%
  MTTE: 30.5 days
  T-C: 13.6 days
9.3 mg/kg, DAY 4
  tumor volume changes from baseline, Median +/− MAD: 25 +/− 25
9.3 mg/kg, DAY 7
  tumor volume changes from baseline, Median +/− MAD: 96 +/− 172
9.3 mg/kg, DAY 11
  tumor volume changes from baseline, Median +/− MAD: 301 +/− 223
9.3 mg/kg, DAY 14
  tumor volume changes from baseline, Median +/− MAD: 472 +/− 550
9.3 mg/kg, DAY 17
  tumor volume changes from baseline, Median +/− MAD: 750 +/− 828
9.3 mg/kg, DAY 20
  tumor volume changes from baseline, Median +/− MAD: 813 +/− 891
9.3 mg/kg, DAY 25
  tumor volume changes from baseline, Median +/− MAD: −78 +/− 110
9.3 mg/kg, DAY 28
  tumor volume changes from baseline, Median +/− MAD: −78 +/− 36
9.3 mg/kg, DAY 32
  tumor volume changes from baseline, Median +/− MAD: −78 +/− 34
15 mg/kg i.v./q4d × 3
  #CR: 4
  #PR: 4
  #TFS: 1
  Drug Deaths Total: 0
  Weight Nadir %: −6%
  Weight Nadir Day: 14
  Tumor Volume Data (Day 11) Median: 204 mm^3
  ΔT/ΔC %: 8.9%
  MTTE: 50.9 days
  T-C: 34 days
15 mg/kg q4d×3 IV
  CR: 4/9
  TFS: 1/9
15 mg/kg, DAY 4
  tumor volume changes from baseline, Median +/− MAD: 26 +/− 25
15 mg/kg, DAY 7
  tumor volume changes from baseline, Median +/− MAD: 73 +/− 109
15 mg/kg, DAY 11
  tumor volume changes from baseline, Median +/− MAD: 73 +/− 186
15 mg/kg, DAY 14
  tumor volume changes from baseline, Median +/− MAD: 73 +/− 251
15 mg/kg, DAY 17
  tumor volume changes from baseline, Median +/− MAD: 169 +/− 347
15 mg/kg, DAY 20
  tumor volume changes from baseline, Median +/− MAD: 290 +/− 468
15 mg/kg, DAY 25
  tumor volume changes from baseline, Median +/− MAD: −78 +/− 100
15 mg/kg, DAY 28
  tumor volume changes from baseline, Median +/− MAD: −84.5 +/− 70
15 mg/kg, DAY 32
  tumor volume changes from baseline, Median +/− MAD: −91 +/− 40
24.2 mg/kg i.v./q4d × 3
  #CR: 3
  #PR: 4
  #TFS: 2
  Drug Deaths Total: 0
  Weight Nadir %: −17%
  Weight Nadir Day: 14
  Tumor Volume Data (Day 11) Median: 300 mm^3
  ΔT/ΔC %: 14.9%
  MTTE: 32.3 days
  T-C: 15.4 days
24.2 mg/kg q4d×3 IV
  CR: 3/9
  TFS: 2/9
24.2 mg/kg, DAY 4
  tumor volume changes from baseline, Median +/− MAD: 26 +/− 40
24.2 mg/kg, DAY 7
  tumor volume changes from baseline, Median +/− MAD: 122
24.2 mg/kg, DAY 11
  tumor volume changes from baseline, Median +/− MAD: 122
24.2 mg/kg, DAY 14
  tumor volume changes from baseline, Median +/− MAD: 122
24.2 mg/kg, DAY 17
  tumor volume changes from baseline, Median +/− MAD: 122
24.2 mg/kg, DAY 20
  tumor volume changes from baseline, Median +/− MAD: 394
24.2 mg/kg, DAY 25
  tumor volume changes from baseline, Median +/− MAD: 351.5
24.2 mg/kg, DAY 28
  tumor volume changes from baseline, Median +/− MAD: 681
24.2 mg/kg, DAY 32
  tumor volume changes from baseline, Median +/− MAD: 254
